Experiment [1] has as its system NAGLU-silenced clone (cl5) of human neuroblastoma cell line SK-NBE. Nature of the experiment: Lamp1 immunofluorescence (lysosomal accumulation) in NAGLU-silenced SK-NBE clone, Sanfilippo B model. The conditions noted are these: 48 hours; for Cells positive for Lamp1 (%) / Relative Lamp1 fluorescence intensity: cl5 clone, 20 μM; for Effect on lysosomal enlargement and accumulation (lysosomal phenotype), in words: clone 5, 20 μM. Format: cell-based. The text has this: (§1) To study the effects of the compounds on the lysosomal dysfunctions in a neuronal model of Sanfilippo B disease (MPS IIIB), we recently generated stable clones of the human neuroblastoma cell line SK-NBE silenced for the NAGLU gene causative of MPS IIIB [De Pasquale V, et al. (2021). Biochim Biophys Acta Mol Cell Res. 1868, 119113.]. Mimicking the features of Sanfilippo B disease, silencing of NAGLU causes accumulation of heparan sulfate and accumulation of lysosomes in the cytoplasm of stable SK-NBE clones compared to the control (WT) clone.
(§2) Therefore, NAGLU-silenced clone (c15) and control clone (WT) were selected to test the effect of L-deoxyminosugars (L-DNJ, L-NBDNJ, L-NNDNJ, L-HPDNJ, L-NPDNJ, L-AMPDNM and L-MONDNJ) in the hydrochloride form on the lysosomal phenotype of our cell model of Sanfilippo B (MPS IIIB).
(§3) Clone 5 was cultured in the presence of 20 μM of each L-deoxyminosugar under normal growth conditions and after 48 hours the lysosomal accumulation was evaluated with immunofluorescence technique by using a specific antibody against Lamp1 (lysosomal marker). […] Furthermore, upon treatment with the active L-deoxyminosugar the lysosomes are no longer concentrated in the perinuclear region of the cells, as occurs in several lysosomal diseases, but they are physiologically distributed throughout the cytoplasm.

Experiment [2] concerns control clone (WT) of human neuroblastoma cell line SK-NBE. Nature of the experiment: Lamp1 immunofluorescence in control (WT) SK-NBE clone. Format: cell-based. The conditions noted are these: 20 μM, 48 hours.
Text: as §1, §2, §3

For experiment [3], the system named is NAGLU-silenced clone (cl5) of human neuroblastoma cell line SK-NBE. Nature of the experiment: Heparan sulfate (HS) immunofluorescence in NAGLU-silenced SK-NBE clone, Sanfilippo B model. The class given is cell-based. The conditions noted are these: 48 hours; for Cells positive for HS (%) / Relative HS fluorescence intensity: cl5 clone, 20 μM; for Effect on HS staining / HS accumulation, in words: clone 5, 20 μM.
Text: as §1
Clone 5 was grown in the presence of 20 μM of each L-iminosugar under normal growth conditions and after 48 hours the accumulation of heparan sulfate (HS) was evaluated by immunofluorescence staining for HS.

Experiment [4] has as its system control clone (WT) of human neuroblastoma cell line SK-NBE. Nature of the experiment: Heparan sulfate (HS) immunofluorescence in control (WT) SK-NBE clone. The conditions noted are these: 20 μM, 48 hours. The class given is cell-based.
Experiment [5] concerns human adult dermal fibroblasts HDFa. Kind of experiment: HS and Lamp1 immunofluorescence in control fibroblasts HDFa. Format: cell-based. The conditions noted are these: 20 μM, 48 hours. The protocol: (§4) To verify whether the selected iminosugars could exert the same effects also on the fibroblasts of patients affected by Sanfilippo disease, human adult dermal fibroblasts HDFa (purchased from Sigma-Aldrich) were used as control, and fibroblasts of patients affected by Sanfilippo A and B (MPS IIIA and IIIB) were used as disease model.
(§5) Cells were cultured in the presence of the selected L-iminosugars at a dosage of 20 μM and after 48 hours were treated for HS and Lamp1 immunofluorescence. Treatment with L-iminosugars had no effect on control HDFa (Table 3).
(§6) Cells were grown in the presence of the iminosugars D-DNJ, D-NBDNJ, D-AMPDNM and D-MONDNJ at the dosage of 20 μM and after 48 hours were treated for HS and Lamp1 immunofluorescence. Treatment with D-iminosugars had no effect on HDFa and fibroblasts of patients affected by Sanfilippo A and B (MPS IIIA and MPS IIIB) both on HS and lysosome accumulation (Table 4).

Experiment [6] concerns fibroblasts of patients affected by Sanfilippo A (MPS IIIA). Nature of the experiment: HS and Lamp1 immunofluorescence in Sanfilippo A patient fibroblasts. Format: cell-based, human. The conditions noted are these: 20 μM, 48 hours; for Relative fluorescence intensity compared to HDFa, HS / Relative fluorescence intensity compared to HDFa, Lamp1: MPS-IIIA fibroblasts; for Effect on HS and lysosome (Lamp1) accumulation, in words: Sanfilippo A (MPS IIIA) patient fibroblasts.
Text: as §4
(§7) The human cell lines, fibroblasts, from patients with MPS (Sanfilippo disease) used in the examples were obtained from the G. Gaslini Institute of Genoa, “Cell Line and DNA Biobank from Patients Affected by Genetic Diseases”-Telethon Genetic Biobank Network—Telethon research service. These cells are classified with identification codes and by type of disease without allowing patient identification. Cells were collected from the patients, at the Gaslini Institute, with informed consent to the collection extended to conservation and its possible use, for diagnosis and/or research purposes according to current legislation as required by the guidelines followed by the Telethon biobanks. The Network operates abiding by the Italian Privacy and Data Protection Laws in force, including: Italian Data Protection Authority, Personal Data Protection Code, Legislative Decree no. 196, 30 Jun. 2003, published in Official Gazette No. 174 of the Italian Republic, 29 Jul. 2003; Italian Data Protection Authority, General Authorization for the processing of genetic data, 24 Jun. 2011, published in Official Gazette No. 159 of Italian Republic, 11 Jul. 2011.
as §5, §6

Experiment [7] deals with fibroblasts of patients affected by Sanfilippo B (MPS IIIB). Kind of experiment: HS and Lamp1 immunofluorescence in Sanfilippo B patient fibroblasts. The class given is cell-based, human. The conditions noted are these: 20 μM, 48 hours; for Relative fluorescence intensity compared to HDFa, HS / Relative fluorescence intensity compared to HDFa, Lamp1: MPS-IIIB fibroblasts; for Effect on HS and lysosome (Lamp1) accumulation, in words: Sanfilippo B (MPS IIIB) patient fibroblasts.
Text: as §4, §7, §5, §6

The test system of experiment [8] is HeLa tumor epithelial cells. Nature of the experiment: HS immunostaining in HeLa cells. Format: cell-based. The conditions noted are these: 48 hours. As to the method:
To test whether treatment with the selected L-deoxyminosugars (L-DNJ, L-NBDNJ, L-AMPDNM and L-MONDNJ) could interfere with HS synthesis we selected a cell line not mutated for NAGLU and highly decorated by heparan sulfate on the cell membrane. For this purpose, HeLa tumor epithelial cells (purchased from ATCC) were cultured for 48 hours in the presence of the selected L-iminosugars and the amount of HS was evaluated by immunostaining.

For experiment [9], the system named is HeLa tumor epithelial cells. Nature of the experiment: HeLa cell proliferation assay. The class given is cell-based. The conditions noted are these: after 48 hours. The protocol: Furthermore, treatment with the L-deoxyminosugars L-DNJ, L-NBDNJ, L-AMPDNM and L-MONDNJ caused a decrease of the number of HeLa cells after 48 hours as shown by the cell proliferation assay reported in Table 6.

The subject of experiment [10] is NAGLU-silenced clone (cl5) of human neuroblastoma cell line SK-NBE. Nature of the experiment: Immunofluorescence against beta-amyloid peptide 1-42 in NAGLU-silenced SK-NBE clone. The class given is cell-based. The conditions noted are these: 20 μM, 48 hours. The protocol:
The clone (c15) stably silenced for NAGLU, the causative gene of MPS IIIB, is able to mimic the features of neurodegenerative diseases as it accumulates beta-amyloid fibers in the cytoplasm. In fact, Sanfilippo Syndrome is also defined as “childhood Alzheimer”.
The diseased clone (c15) was grown in the presence of L-DNJ, L-NBDNJ, L-AMPDNM and L-MONDNJ and the corresponding enantiomers D-DNJ, D-NBDNJ, D-AMPDNM and D-MONDNJ at a dosage of 20 μM and after 48 hours were processed by immunofluorescence against the beta-amyloid peptide 1-42. […] On contrary, treatment with the corresponding D-enantiomers has no effect on the reduction of the accumulation of amyloid fibers compared to the untreated clone (mock) (Table 7).

Where a name gives a salt, the structure may show the parent alone.

The record followed here is patent publication US20250255856A1, “THERAPEUTIC COMPOSITIONS WITH IMINO SUGARS FOR THE TREATMENT OF DISEASES WITH ACCUMULATION OF HEPARAN SULFATE” (priority 2022, published 2025).

Regarding `CCCCN1C[C@@H](O)[C@H](O)[C@@H](O)[C@@H]1CO` [L-NBDNJ•HCl, N-butyl-L-deoxynojirimycin], in [1], the “Cells positive for Lamp1 (%)” value is recorded as 20%; the “Relative Lamp1 fluorescence intensity” value turned out to be 0.97; the “Effect on lysosomal enlargement and accumulation (lysosomal phenotype), in words” value (“Effect … (lysosomal phenotype), in words” below) is “dramatic reduction”. Moreover, in experiment [2], the “Cells positive for Lamp1 (%)” value is 2.6% and the “Relative Lamp1 fluorescence intensity” value is listed as 1.07. Besides, in experiment [3], the “Cells positive for HS (%)” value turned out to be 7.4%; the “Relative HS fluorescence intensity” value was 1.13; the “Effect on HS staining / HS accumulation, in words” value was “dramatic reduction”. In experiment [4], the “Cells positive for HS (%)” value came out at 2.5% and the “Relative HS fluorescence intensity” value worked out at 0.96. In experiment [5], the “Relative fluorescence intensity compared to HDFa, HS” value (“Relative fluorescence intensity … HS” below) is reported as 1.0 and the “Relative fluorescence intensity compared to HDFa, Lamp1” value worked out at 1.0. In [6], the “Relative fluorescence intensity … HS” value came to 1.7; the “Relative fluorescence intensity compared to HDFa, Lamp1” value was 1.9; the “Effect on HS and lysosome (Lamp1) accumulation, in words” value (from here on “Effect on HS and lysosome”) is given as “strong reduction”. Also, in [7], the “Relative fluorescence intensity … HS” value is recorded as 1.5; the “Relative fluorescence intensity compared to HDFa, Lamp1” value was determined as 1.0; the “Effect on HS and lysosome” value was “strong reduction”. Moreover, in experiment [8], the “Effect on HS accumulation on the HeLa cell membrane, in words” value (“Effect on HS accumulation” below) was “strong reduction” and the “Relative HS fluorescence intensity” value is given as 0.26. In addition, in experiment [9], the Cell number is listed as 3.6 · 10^5 and the “Effect on the number of HeLa cells, in words” value (“Effect on the number” for short) is listed as “decrease”. Besides, in experiment [10], the “Relative amyloid fluorescence intensity” value is recorded as 0.01.
Take `OC[C@@H]1NC[C@@H](O)[C@H](O)[C@H]1O` [L-DNJ•HCl]: in experiment [1], the “Cells positive for Lamp1 (%)” value is listed as 25%; the “Relative Lamp1 fluorescence intensity” value was determined as 0.95; the “Effect … (lysosomal phenotype), in words” value is recorded as “dramatic reduction”. Moreover, in experiment [2], the “Cells positive for Lamp1 (%)” value stood at 2.8% and the “Relative Lamp1 fluorescence intensity” value is recorded as 1.00. In addition, in [3], the “Cells positive for HS (%)” value worked out at 5.1%; the “Relative HS fluorescence intensity” value stood at 1.20; the “Effect on HS staining / HS accumulation, in words” value is listed as “dramatic reduction”. In experiment [4], the “Cells positive for HS (%)” value is reported as 2.6% and the “Relative HS fluorescence intensity” value is 0.94. For the same compound, in [5], the “Relative fluorescence intensity … HS” value is 1.0 and the “Relative fluorescence intensity compared to HDFa, Lamp1” value is listed as 1.0. Besides, in [6], the “Relative fluorescence intensity … HS” value is 1.0; the “Relative fluorescence intensity compared to HDFa, Lamp1” value worked out at 1.8; the “Effect on HS and lysosome” value was “strong reduction”. In experiment [7], the “Relative fluorescence intensity … HS” value was 1.0; the “Relative fluorescence intensity compared to HDFa, Lamp1” value turned out to be 1.0; the “Effect on HS and lysosome” value is on record as “strong reduction”. For the same compound, in experiment [8], the “Effect on HS accumulation” value is on record as “strong reduction” and the “Relative HS fluorescence intensity” value was found to be 0.24. In addition, in experiment [9], the Cell number was 2.9 · 10^5 and the “Effect on the number” value is reported as “decrease”. Moreover, the “Relative amyloid fluorescence intensity” value in experiment [10] was 0.01.
Turning to `OC[C@H]1[C@H](O)[C@@H](O)[C@H](O)CN1CCCCCOCC12CC3C[C@H](C1)C[C@H](C3)C2` [L-AMPDNM•HCl, N-adamantanomethoxypentyl L-DNJ], in [1], the “Cells positive for Lamp1 (%)” value is 18%; the “Relative Lamp1 fluorescence intensity” value is given as 0.99; the “Effect … (lysosomal phenotype), in words” value was “dramatic reduction”. In [2], the “Cells positive for Lamp1 (%)” value was found to be 2.5% and the “Relative Lamp1 fluorescence intensity” value is on record as 1.08. In [3], the “Cells positive for HS (%)” value was 5.1%; the “Relative HS fluorescence intensity” value stood at 1.19; the “Effect on HS staining / HS accumulation, in words” value is reported as “dramatic reduction”. Besides, in experiment [4], the “Cells positive for HS (%)” value is 2.3% and the “Relative HS fluorescence intensity” value stood at 0.94. In addition, in experiment [5], the “Relative fluorescence intensity … HS” value stood at 1.0 and the “Relative fluorescence intensity compared to HDFa, Lamp1” value came out at 1.0. Further, in [6], the “Relative fluorescence intensity … HS” value was 1.5; the “Relative fluorescence intensity compared to HDFa, Lamp1” value is 2.2; the “Effect on HS and lysosome” value is on record as “strong reduction”. In experiment [7], the “Relative fluorescence intensity … HS” value was found to be 1.0; the “Relative fluorescence intensity compared to HDFa, Lamp1” value came to 1.0; the “Effect on HS and lysosome” value was “strong reduction”. In experiment [8], the “Effect on HS accumulation” value is “strong reduction” and the “Relative HS fluorescence intensity” value came to 0.12. Moreover, in experiment [9], the Cell number was 3.7 · 10^5 and the “Effect on the number” value is given as “decrease”. In addition, in experiment [10], the “Relative amyloid fluorescence intensity” value was found to be 0.02.
